From patent US6410480B1, “Herbicidally active 3-hydroxy-4-aryl-5-oxopyrazoline derivatives” (Syngenta Crop Protection, Inc., priority 1998, dated 2002)

Tested on: all of the weeds tested
Experiment: Experimental comparison with the prior art: herbicidal action, pre- and post-emergence, overall statement
Type: in vivo
Conditions: 500 g of active substance/ha, against all of the weeds tested
Source text: The following compounds were examined for their herbicidal activity: Monocotyledonous and dicotyledonous weeds are sown in standard soil in plastic pots. Immediately after sowing, the test substances are applied (500 l of water/ha) as an aqueous suspension (prepared using a 25% wettable powder (Example F3, b)) or as an emulsion (prepared using a 25% emulsion concentrate (Example F1, c)). The application rate is 500 g of active substance/ha. The test plants are subsequently grown under optimum conditions in a greenhouse. 3 weeks after the application, evaluation is carried out using a nine-level scale of ratings (1=complete damage, 9=no effect). Ratings of 1 to 4 (in particular 1 to 3) mean a good to very good herbicidal action. Test plants: Alopecurus (Alo), Avena (Ave), Lolium (Lot), Setaria (Set), Panicum (Pan), Sorghum (Sor), Digitaria (Dig), Echinocloa (Ech) and Brachiaria (Bra). Monocotyledonous and dicotyledonous weeds are grown in standard soil in plastic pots under greenhouse conditions. The test substances are applied at the 3- to 6-leaf stage of the test plants. The test substances are applied (500 l of water/ha) as an aqueous suspension (prepared using a 25% wettable powder (Example F3, b)) or as an emulsion (prepared using a 25% emulsion concentrate (Example F1, c)) at an application rate of 500 g of active substance/ha. […]

Cc1cc(C)c(C2C(=O)N3CCOCCN3C2=O)c(C)c1 [Compound No. 1.01]
herbicidal action compared with compound A of the prior art: considerably better herbicidal action
